According to patent US10570156B2, “Substituted imidazo[1,2-a]pyridines as PDE-10 inhibitors” (SUNOVION PHARMACEUTICALS INC., priority 2011, dated 2020):

Molecular target: recombinant human PDE-10 enzyme (Homo sapiens (Human), UniProt Q9Y233)
Test: human PDE-10 inhibition assay (IMAP PDE Fluorescence Polarization enzyme assay)
Type: biochemical
Conditions: Fluorescein-labeled cAMP/cGMP substrate, 40-minute incubation at 37° C.
Method: In one embodiment, the compounds provided herein were assayed for their ability to inhibit human PDE-10A. In one embodiment, the activities of the compounds were determined using the Molecular Devices IMAP PDE Fluorescence Polarization assay using recombinant human PDE-10 enzyme expressed in a baculoviral system. Briefly, 10 μL of a compound (0.2 nM-20 μM) was added to either a 96-well half area black plate or a 384-well black plate along with 10 μL of Fluorescein-labeled cAMP/cGMP substrate as per manufacturer's instructions and 10 μL of PDE enzyme (activity 0.1 U). Following a 40-minute incubation at 37° C., 60 μL of IMAP binding reagent was added. The plate was then read on a Perkin Elmer Victor (480-535 nm). The data was analyzed using Prism Software (GraphPad Inc, San Diego, Calif.).

recombinant human PDE-10 enzyme, sequence (Q9Y233 whole entry): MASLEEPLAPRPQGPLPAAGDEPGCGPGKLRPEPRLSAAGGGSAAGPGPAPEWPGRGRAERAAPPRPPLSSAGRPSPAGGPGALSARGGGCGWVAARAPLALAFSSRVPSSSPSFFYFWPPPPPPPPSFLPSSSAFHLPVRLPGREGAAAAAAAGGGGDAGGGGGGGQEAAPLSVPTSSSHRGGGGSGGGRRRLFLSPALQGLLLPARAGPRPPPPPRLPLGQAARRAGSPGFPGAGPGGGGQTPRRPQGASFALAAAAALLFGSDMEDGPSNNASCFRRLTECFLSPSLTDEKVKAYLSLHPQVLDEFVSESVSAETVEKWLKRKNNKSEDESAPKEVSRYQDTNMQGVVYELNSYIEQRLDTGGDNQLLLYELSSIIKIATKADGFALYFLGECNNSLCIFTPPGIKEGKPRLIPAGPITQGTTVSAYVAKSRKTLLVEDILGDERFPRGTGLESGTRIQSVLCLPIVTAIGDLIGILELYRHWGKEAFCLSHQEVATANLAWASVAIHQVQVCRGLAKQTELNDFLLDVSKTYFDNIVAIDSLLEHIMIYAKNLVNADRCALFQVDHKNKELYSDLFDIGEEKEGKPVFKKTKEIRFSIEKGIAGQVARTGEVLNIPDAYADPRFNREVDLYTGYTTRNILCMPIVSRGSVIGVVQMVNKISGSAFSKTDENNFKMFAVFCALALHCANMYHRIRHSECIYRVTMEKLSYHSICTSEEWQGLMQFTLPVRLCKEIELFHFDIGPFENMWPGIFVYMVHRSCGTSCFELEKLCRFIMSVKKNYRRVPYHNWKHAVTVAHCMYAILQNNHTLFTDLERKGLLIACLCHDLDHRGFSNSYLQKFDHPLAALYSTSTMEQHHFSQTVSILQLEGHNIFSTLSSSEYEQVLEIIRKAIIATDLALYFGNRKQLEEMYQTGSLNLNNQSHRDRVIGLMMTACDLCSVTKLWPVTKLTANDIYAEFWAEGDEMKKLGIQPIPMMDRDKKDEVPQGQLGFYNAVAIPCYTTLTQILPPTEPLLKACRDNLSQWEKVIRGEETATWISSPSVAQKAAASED

IC50: > 500 nM
SMILES: Cc1ncc(C)n2nc(CCc3nc4c(C)ncc(C)n4n3)nc12 [Compound 2]
